Measurements as given in patent US6492373B2, “6-fluoro-1,4-dihydro-7-[4-(2-hydroxyiminoethyl)-1-piperazinyl]-4-oxoquinoline-3-carboxylic acid derivatives, their preparation and pharmaceutical compositions” (Pharmaceutical Industry Technology and Development Center, priority 2000, dated 2002).
In brackets after ≈: the same amount, converted by molar mass.

Tests used:
[1] = tested on: Staphylococcus aureus, Methicillin Resistant (MRSA); assay: In vitro antibacterial activity, MIC by broth dilution; assay type: cell-based; details: for MIC: Staphylococcus aureus, MRSA, 20-72 hours at 37° C., Mueller-Hinton broth
Escherichia coli = assay: as above; assay type: cell-based; details: for MIC: Escherichia coli, 20-72 hours at 37° C., Nutrient Broth
Mycobacterium ranae = assay: as above; assay type: cell-based; details: for MIC: Mycobacterium, 20-72 hours at 37° C., Brain Heart Infusion broth
Pseudomonas aeruginosa = assay: as above; assay type: cell-based; details: for MIC: Pseudomonas aeruginosa, 20-72 hours at 37° C., Nutrient Broth
Klebsiella pneumoniae = assay: as above; assay type: cell-based
Proteus vulgaris = assay: as above; assay type: cell-based; details: for MIC: Proteus vulgaris, 20-72 hours at 37° C., Mueller-Hinton broth
[2] = tested on: Staphylococcus pneumoniae, Erythromycin and Ampicillin resistant, clinical isolates; assay: as above; assay type: cell-based; details: for MIC: Staphylococcus, 20-72 hours at 37° C., Tryptic Soy Broth with 7% calf serum
[3] = tested on: Enterococcus faecalis, Vancomycin resistant, clinical isolates; assay: as above; assay type: cell-based; details: for MIC: Enterococcus faecalis, 20-72 hours at 37° C., Tryptic Soy Broth with 7% calf serum
CCRF-CEM (leukemia) = assay: NCI in vitro tumor cell growth inhibition (GI50); assay type: cell-based; details: Homo sapiens
HL-60 (TB) (leukemia) = assay: NCI in vitro tumor cell growth inhibition (GI50); assay type: cell-based; details: Homo sapiens
RPMI-8226 (leukemia) = assay: NCI in vitro tumor cell growth inhibition (GI50); assay type: cell-based; details: Homo sapiens
[4] = tested on: EKVX (non-small cell lung cancer); assay: NCI in vitro tumor cell growth inhibition (GI50); assay type: cell-based; details: Homo sapiens
[5] = tested on: HOP-62 (non-small cell lung cancer); assay: NCI in vitro tumor cell growth inhibition (GI50); assay type: cell-based; details: Homo sapiens
[6] = tested on: NCI-H226 (non-small cell lung cancer); assay: NCI in vitro tumor cell growth inhibition (GI50); assay type: cell-based; details: Homo sapiens
SK-OV-3 (ovarian cancer) = assay: NCI in vitro tumor cell growth inhibition (GI50); assay type: cell-based; details: Homo sapiens
SK-OV-4 (ovarian cancer) = assay: NCI in vitro tumor cell growth inhibition (GI50); assay type: cell-based; details: Homo sapiens
SK-OV-5 (ovarian cancer) = assay: NCI in vitro tumor cell growth inhibition (GI50); assay type: cell-based; details: Homo sapiens
CAKI-1 (renal cancer) = assay: NCI in vitro tumor cell growth inhibition (GI50); assay type: cell-based; details: Homo sapiens
UO-31 (renal cancer) = assay: NCI in vitro tumor cell growth inhibition (GI50); assay type: cell-based; details: Homo sapiens
[7] = tested on: 60 human tumor cell lines; assay: NCI in vitro tumor cell growth inhibition, whole panel; assay type: cell-based; details: for GI50: Homo sapiens, Mean values over 60 cell lines tested; for Range: Ratio of GI50 value for the least sensitive cell to the most sensitive cell
RXF-393 (renal cancer) = assay: NCI in vitro tumor cell growth inhibition (GI50); assay type: cell-based; details: Homo sapiens
[8] = 20-72 hours at 37° C., Nutrient Broth
[9] = Gentamicin, footnote b: MIC in μg/ml

Molecule | MIC [1] | MIC (Escherichia coli) | MIC (Mycobacterium ranae) | MIC (Pseudomonas aeruginosa) | MIC, Kp (Klebsiella pneumoniae; [8]) | MIC (Proteus vulgaris) | MIC [2] | MIC [3] | melting point | further results
CCn1cc(C(=O)O)c(=O)c2cc(F)c(N3CCN(CC(C)NN)CC3)cc21 (stereo not shown) [Exp. 1, 1-Ethyl-6-fluoro-7-[4-(2-hydrazinopropyl)-1-piperazinyl]-4-oxo-1,4-dihydroquinoline-3-carboxylic acid] | 4.01 µM (≈ 1.57 µg/mL) | 2.01 µM (≈ 0.787 µg/mL) | 16.1 µM (≈ 6.3 µg/mL) | 16.1 µM (≈ 6.3 µg/mL) | 0.064 µM | 2.01 µM (≈ 0.787 µg/mL) | 32.1 µM (≈ 12.6 µg/mL) | 16.1 µM (≈ 6.3 µg/mL) | 208 °C (dec.) | 
CCn1cc(C(=O)O)c(=O)c2cc(F)c(N3CCN(CC(C)=NO)CC3)cc21 [Exp. 2, 1-Ethyl-6-fluoro-7-[4-(2-hydroxyiminopropyl)-1-piperazinyl]-4-oxo-1,4-dihydroquinoline-3-carboxylic acid] | 0.51 µM (≈ 0.199 µg/mL) | 0.51 µM (≈ 0.199 µg/mL) | 32.1 µM (≈ 12.5 µg/mL) | 16 µM (≈ 6.25 µg/mL) | 0.13 µM | 2 µM (≈ 0.781 µg/mL) |  |  | 218 °C (dec.) | 
CCn1cc(C(=O)O)c(=O)c2cc(F)c(N3CCN(CC(=NO)c4ccccc4)CC3)cc21 [Exp. 3, 1-Ethyl-6-fluoro-4-oxo-7-[4-(2-hydroxyimino-2-phenylethyl)-1-piperazinyl]-1,4-dihydroquinoline-3-carboxylic acid] | 0.44 µM (≈ 0.199 µg/mL) | 0.86 µM (≈ 0.389 µg/mL) | 55.3 µM (≈ 25 µg/mL) | 13.8 µM (≈ 6.24 µg/mL) | 0.22 µM | 3.45 µM (≈ 1.56 µg/mL) |  |  | 203 °C (dec.) | 
CCn1cc(C(=O)O)c(=O)c2cc(F)c(N3CCN(CC(=O)c4ccccc4)CC3)c(F)c21 [Exp. 4, 1-Ethyl-6,8-difluoro-1,4-dihydro-4-oxo-7-(4-phenacyl-1-piperazinyl)-quinoline-3-carboxylic acid] | 1.71 µM (≈ 0.779 µg/mL) | 0.22 µM (≈ 0.1 µg/mL) | 3.43 µM (≈ 1.56 µg/mL) | 0.86 µM (≈ 0.392 µg/mL) | 0.055 µM | 0.22 µM (≈ 0.1 µg/mL) | 13.7 µM (≈ 6.24 µg/mL) | 13.7 µM (≈ 6.24 µg/mL) | 167 °C (dec.) | 
CCn1cc(C(=O)O)c(=O)c2cc(F)c(N3CCN(CC(=NO)c4ccc(OC)cc4)CC3)cc21 [Exp. 5, 1-Ethyl-6-fluoro-7-{4-[2-hydroxyimino-2-(4-methoxyphenyl)-ethyl]-1-piperazinyl}-4-oxo-1,4-dihydroquinoline-3-carboxylic acid] | 0.41 µM (≈ 0.198 µg/mL) | 1.62 µM (≈ 0.782 µg/mL) | 104 µM (≈ 50.2 µg/mL) | 25.9 µM (≈ 12.5 µg/mL) | 0.027 µM | 3.24 µM (≈ 1.56 µg/mL) | 13 µM (≈ 6.26 µg/mL) | 3.24 µM (≈ 1.56 µg/mL) | 221 °C (dec.) | GI50 (CCRF-CEM (leukemia)): 24.4 µM; GI50 (HL-60 (TB) (leukemia)): 17.7 µM; GI50 (RPMI-8226 (leukemia)): 38.4 µM; GI50 [4]: 46.8 µM; GI50 [5]: 52.3 µM; GI50 [6]: 93.3 µM; GI50 (SK-OV-3 (ovarian cancer)): 37.2 µM; GI50 (SK-OV-4 (ovarian cancer)): 55.1 µM; GI50 (SK-OV-5 (ovarian cancer)): > 100 µM; GI50 (CAKI-1 (renal cancer)): 6.91 µM; GI50 (UO-31 (renal cancer)): 0.55 µM; GI50 [7]: 31.8 µM; Range [7]: 182
CCn1cc(C(=O)O)c(=O)c2cc(F)c(N3CCN(CC(=NO)c4ccc(OC)cc4)CC3)c(F)c21 [Exp. 6, 1-Ethyl-6,8-difluoro-7-{4-[2-hydroxyimino-2-(4-methoxy-phenyl)ethyl]-1-piperazinyl}-4-oxo-1,4-dihydroquinoline-3-carboxylic acid] | 0.2 µM (≈ 0.1 µg/mL) | 0.4 µM (≈ 0.2 µg/mL) | 6.34 µM (≈ 3.17 µg/mL) | 3.16 µM (≈ 1.58 µg/mL) | 0.10 µM | 0.4 µM (≈ 0.2 µg/mL) | 6.34 µM (≈ 3.17 µg/mL) | 3.16 µM (≈ 1.58 µg/mL) | 176 °C (dec.) | 
CCn1cc(C(=O)O)c(=O)c2cc(F)c(N3CCN(CC(=NOC)c4ccc(OC)cc4)CC3)cc21 [Exp. 7, 1-Ethyl-6-fluoro-7-{4-[2-methoxyimino-2-(4-methoxyphenyl)-ethyl]-1-piperazinyl}-4-oxo-1,4-dihydroquinoline-3-carboxylic acid] | 1.57 µM (≈ 0.78 µg/mL) | 6.31 µM (≈ 3.13 µg/mL) | 202 µM (≈ 100 µg/mL) | 202 µM (≈ 100 µg/mL) | 1.57 µM | 6.31 µM (≈ 3.13 µg/mL) | 12.6 µM (≈ 6.26 µg/mL) | 12.6 µM (≈ 6.26 µg/mL) | 165 °C (dec.) | 
COc1ccc(C(CN2CCN(c3cc4c(cc3F)c(=O)c(C(=O)O)cn4-c3ccc([N+](=O)[O-])cc3F)CC2)=NO)cc1 [Exp. 8, 1-(4-Nitro-2-fluorophenyl)-6-fluoro-7-{4-[2-hydroxyimino-2-(4-methoxyphenyl)ethyl]-1-piperazinyl}-4-oxo-1,4-dihydroquinoline-3-carboxylic acid] | 0.34 µM (≈ 0.202 µg/mL) | 1.32 µM (≈ 0.783 µg/mL) | 21.1 µM (≈ 12.5 µg/mL) | 42.2 µM (≈ 25 µg/mL) | 0.08 µM | > 169 µM | 1.32 µM (≈ 0.783 µg/mL) | 5.28 µM (≈ 3.13 µg/mL) |  | 
CCn1cc(C(=O)O)c(=O)c2cc(F)c(N3CCN(CC(=NO)c4ccc(F)cc4)CC3)cc21 [Exp. 9, 1-Ethyl-6-fluoro-7-{4-[2-(4-fluorophenyl)-2-hydroxyimino-ethyl]-1-piperazinyl}-4-oxo-1,4-dihydro-3-quinolinecarboxylic acid] |  |  |  |  |  |  |  |  |  | GI50 (CCRF-CEM (leukemia)): 10.5 µM; GI50 (HL-60 (TB) (leukemia)): 0.98 µM; GI50 (RPMI-8226 (leukemia)): 22.9 µM; GI50 [4]: 42.6 µM; GI50 [5]: 42.6 µM; GI50 [6]: 53.5 µM; GI50 (SK-OV-3 (ovarian cancer)): 32 µM; GI50 (SK-OV-4 (ovarian cancer)): 39.4 µM; GI50 (SK-OV-5 (ovarian cancer)): > 100 µM; GI50 (CAKI-1 (renal cancer)): 1.89 µM; GI50 (RXF-393 (renal cancer)): 0.17 µM; GI50 (UO-31 (renal cancer)): 0.13 µM; GI50 [7]: 21.5 µM; Range [7]: 758
CCn1cc(C(=O)O)c(=O)c2cc(F)c(N3CCN(CC(=NO)c4ccc(Cl)cc4)CC3)cc21 [Exp. 10, 1-Ethyl-6-fluoro-7-{4-[2-(4-chlorophenyl)-2-hydroxyimino-ethyl]-1-piperazinyl}-4-oxo-1,4-dihydro-3-quinolinecarboxylic acid] |  |  |  |  |  |  |  |  |  | GI50 (CCRF-CEM (leukemia)): 67.4 µM; GI50 (HL-60 (TB) (leukemia)): 1.29 µM; GI50 (RPMI-8226 (leukemia)): 3.21 µM; GI50 [4]: 19.2 µM; GI50 [5]: 28.6 µM; GI50 [6]: 20.3 µM; GI50 (SK-OV-3 (ovarian cancer)): 28.7 µM; GI50 (SK-OV-4 (ovarian cancer)): 32.1 µM; GI50 (SK-OV-5 (ovarian cancer)): 22.8 µM; GI50 (CAKI-1 (renal cancer)): 0.4 µM; GI50 (RXF-393 (renal cancer)): 0.72 µM; GI50 (UO-31 (renal cancer)): 0.03 µM; GI50 [7]: 9.31 µM; Range [7]: 2291
CCn1cc(C(=O)O)c(=O)c2cc(F)c(N3CCN(C(=N)C(O)c4ccc(F)cc4)CC3)c(F)c21 (stereo not shown) [Exp. 11, 1-Ethyl-6,8-difluoro-7-{4-[2-(4-fluorophenyl)-2-hydroxy-iminoethyl]-1-piperazinyl}-4-oxo-1,4-dihydro-3-quinolinecarboxylic acid] |  |  |  |  |  |  |  |  | 201 °C (dec.) | 
COc1ccc(C(=O)CN2CCN(c3cc4c(cc3F)c(=O)c(C(=O)O)cn4-c3ccc(N)cc3F)CC2)cc1 [Exp. 12, 1-(4-amino-2-fluorophenyl)-6-fluoro-7-{4-[2-(4-methoxy-phenyl)-2-oxoethyl]-1-piperazinyl}-4-oxo-1,4-dihydroquinoline-3-carboxylic acid] | 0.55 µM (≈ 0.302 µg/mL) | 0.55 µM (≈ 0.302 µg/mL) | 18.2 µM (≈ 9.98 µg/mL) | 5.74 µM (≈ 3.15 µg/mL) | 0.05 µM | 18.2 µM (≈ 9.98 µg/mL) | 1.82 µM (≈ 0.998 µg/mL) | 5.47 µM (≈ 3 µg/mL) | 143 °C (dec.) | 
CCn1cc(C(=O)O)c(=O)c2cc(F)c(N3CCNCC3)cc21 [Norfloxacin, reference compound] | 4.89 µM (≈ 1.56 µg/mL) | 0.63 µM (≈ 0.201 µg/mL) | 9.81 µM (≈ 3.13 µg/mL) | 1.22 µM (≈ 0.39 µg/mL) | 0.041 µM | 0.16 µM (≈ 0.0511 µg/mL) | 19.6 µM (≈ 6.26 µg/mL) | 9.81 µM (≈ 3.13 µg/mL) |  | 
CC1COc2c(N3CCN(C)CC3)c(F)cc3c(=O)c(C(=O)O)cn1c23 (stereo not shown) [Ofloxacin, reference compound] | 1.08 µM (≈ 0.39 µg/mL) | 0.28 µM (≈ 0.101 µg/mL) | 1.08 µM (≈ 0.39 µg/mL) | 2.16 µM (≈ 0.781 µg/mL) | 0.036 µM | 0.069 µM (≈ 0.0249 µg/mL) | 4.32 µM (≈ 1.56 µg/mL) | 4.32 µM (≈ 1.56 µg/mL) |  | 
Gentamicin [reference compound] |  |  |  |  |  |  |  |  |  | MIC, MRSA [1, 9]: 0.78 µg/mL; MIC, Ec (Escherichia coli; [9]): 0.20 µg/mL; MIC, Mr (Mycobacterium ranae; [9]): 0.20 µg/mL; MIC, Pa (Pseudomonas aeruginosa; [9]): 0.39 µg/mL; MIC, Kp (Klebsiella pneumoniae; [9]): 0.2 µg/mL; MIC, Pv (Proteus vulgaris; [9]): 0.1 µg/mL; MIC, SpEAR [2, 9]: 100 µg/mL; MIC, EfVRE [3, 9]: 50 µg/mL
